Where two headings read alike, the source gives them in different places.

Type in all cases: cell-based, human
Data set [1] relates to p62/LC3. In words: Ratio between p62 and LC3 expression levels. Conditions: compound at 3 µM, 24 h, SY5Y-APP^wt cells. An excerpt:
Compounds from both series were selected to first determine the potential relationship between the repression of Aβ1–x production and the increased expression of LC3 and p62. […] We then also considered the ratio between the p62 and LC3 expression levels.
Figure 3 Effect of compounds 24, 33, 34, 57, 65, 67, 70, and 71 on the autophagic flux in SY5Y-APP^wt cells. […] Cell lysates were immunolabeled with the following antibodies: p62 (a), LC3 (b), and β-actin. Statistical significance was set at * p < 0.05, ** p < […], *[…], **** p < 0.0001, and ns as not significant.

Data set [2] relates to Aβ1–42 peptide secretion. Nature of the data set: Aβ1–42 secretion in cell medium by ELISA. Conditions: SY5Y-APP^WT cells, 24 h treatment, mean ± SD of at least three experiments in triplicate. An outline of the steps:
(§1)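 SY5Y-APP^WT cells (SH-SY5Y human neuroblastoma stably expressing human wild-type APP695) were treated with compounds for 24 h in supplemented DMEM at 37 °C. Secreted Aβ1–40 and Aβ1–42 were quantified in the collected, centrifuged conditioned medium by ELISA, in pg/mL.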
(An ELISA detects its analyte on a solid surface through an enzyme-linked reagent.)

The test system of data set [3] is Aβ1–40 peptide secretion. In words: Aβ1–40 secretion in cell medium by ELISA. An outline of the steps: as §1
Data set [4] concerns AICD (APP intracellular domain). In words: AICD level by Western blotting in SY5Y-APP^WT cells. The note with it: concentration increasing AICD 20-fold vs untreated control, read-out: AICD (C20). An outline of the steps:
(§2)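 SH-SY5Y cells stably expressing human wild-type APP695 treated with compounds for 24 h at 37 °C. αCTF and AICD measured by Western blot of lysates (10 µg protein, 12% Bis-Tris gels) as band intensity; C20 is concentration raising these fragments 20-fold over control.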
In general terms: In western blotting, separated proteins are transferred to a membrane and probed.

Data set [5] concerns αCTF (APP carboxy-terminal fragment). Nature of the data set: αCTF level by Western blotting in SY5Y-APP^WT cells. The note with it: for EC (20-fold increase): concentration increasing αCTF 20-fold vs untreated control, SY5Y-APP^WT cells, read-out: αCTF (C20); for C20 for CTFα and AICD: CTFα and AICD together. An outline of the steps:
as §2

Data set [6] is described as follows: in vitro. Conditions: human. Put shortly: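 Cells seeded at 3 × 10^4 per well, attached 24 h, then exposed to drug for 72 h in DMEM with 10% SVF. Viability by MTS colorimetric assay, absorbance at 490 nm.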
Where [7] appears, read: Homo sapiens, SY5Y-APP^WT cells, 24 h treatment, mean ± SD of at least three experiments in triplicate, read-out: Aβ1–40 IC50.
[8] abbreviates: Homo sapiens, Aβ1–40 and Aβ1–42 not distinguished, read-out: IC50 for Aβ secretion (Aβ1–x production).

By IC50 is commonly meant the concentration at which inhibition is half-maximal. Broadly, the CC50 is the concentration that lowers cell viability or growth by half. Read a high CC50 as better tolerance by the cells. Consider `CN(C)CCCc1ccc(-c2nn(-c3ccc(CN(C)C)cc3)cc2CN(C)C)cc1` [Compound 24, 3-[4-[4-(Dimethylaminomethyl)-1-[4-(dimethylaminomethyl)phenyl] Pyrazol-3-yl]phenyl]-N,N-dimethyl-propan-1-amine], for which the p62/LC3 in data set [1] stood at 0.49. The IC50 in data set [2] (Homo sapiens) is 2500 ± 200 nM; in data set [3] (setting [7]), 1500 ± 100 nM. Also, the EC (20-fold increase) amounted to 2.2 µM in data set [4] (Homo sapiens) and 1.6 µM in data set [5] (Homo sapiens). For the same compound, the CC50 at 72 h in data set [6] was > 100000 nM.
Take `Cc1cn(-c2cccc(CO)c2)nc1-c1ccc(CN(C)CCCN(C)C)cc1` [Compound 57, (3-{3-[4-({[3-(Dimethylamino)propyl](methyl)amino}methyl)phenyl]-4-methyl-1H-pyrazol-1-yl}phenyl)methanol]: the p62/LC3 in data set [1] is 0.71. Besides, the IC50 is 3500 ± 800 nM in data set [2] (Homo sapiens) and 2900 ± 1000 nM in data set [3] (setting [7]). Moreover, the EC (20-fold increase) in data set [4] (Homo sapiens) is 8.5 µM; in data set [5] (Homo sapiens) it was > 10 µM. In data set [6], the CC50 at 72 h is > 100000 nM.
In the case of `Cc1cn(-c2cccc(CN3CCN(C)CC3)c2)nc1-c1cccc(CN(C)C)c1` [Compound 65, N,N-dimethyl-1-[3-[4-methyl-1-[3-[(4-methylpiperazin-1-yl)methyl]phenyl]pyrazol-3-yl]phenyl]methanamine], in data set [1], the p62/LC3 is listed as 0.63. For the same compound, the results for the concentration for half-maximal inhibition (IC50) in data set [2] (Homo sapiens) and in data set [3] (setting [7]) were 2100 ± 400 nM and 2000 ± 700 nM, respectively. The EC (20-fold increase) is 2.8 µM in data set [4] (Homo sapiens) and 1.7 µM in data set [5] (Homo sapiens). In data set [6], the CC50 at 72 h was > 100000 nM.
Take `Cc1cn(-c2cccc(CN(C)C)c2)nc1-c1ccc(CN(C)CCCN(C)C)cc1` [Compound 67, {[4-(1-{3-[(Dimethylamino)methyl]phenyl}-4-methyl-1H-pyrazol-3-yl)phenyl]methyl} [3-(Dimethylamino)propyl]methylamine]: the p62/LC3 in data set [1] was found to be 0.51. Moreover, the results for the IC50 in data set [2] (Homo sapiens), in data set [3] (setting [8]) and in data set [3] (setting [7]) were 2100 ± 500 nM, ~1000 nM and 1300 ± 100 nM, respectively. The EC (20-fold increase) in data set [4] (Homo sapiens) is 1.2 µM; in data set [5] (Homo sapiens) it was 1.4 µM. Also, the “C20 for CTFα and AICD” value in data set [5] is “around 1 µM”. Moreover, in data set [6], the midpoint of cytotoxicity, the CC50 at 72 h, lay at 12000 nM.
Turning to `Cc1cn(-c2cccc(CN(C)C)c2)nc1-c1cccc(CN(C)CCCN(C)C)c1` [Compound 70, N′-[[3-[1-[3-(Dimethylaminomethyl)phenyl]-4-methyl-pyrazol-3-yl]phenyl] Methyl]-N,N,N′-trimethyl-propane-1,3-diamine], the p62/LC3 in data set [1] was 0.30. In addition, the IC50 came out at 2100 ± 100 nM in data set [2] (Homo sapiens) and 1500 ± 100 nM in data set [3] (setting [7]). The EC (20-fold increase) in data set [4] (Homo sapiens) was found to be 1.7 µM; in data set [5] (Homo sapiens), 1.3 µM. Also, in data set [6], it took 51000 nM to reach half-maximal cytotoxicity (CC50 at 72 h).
`Cc1cn(-c2cccc(CN3CCN(C)CC3)c2)nc1-c1cccc(CN(C)CCCN(C)C)c1` [Compound 71, N,N,N′-Trimethyl-N′-[[3-[4-methyl-1-[3-[(4-methylpiperazin-1-yl)methyl]phenyl]pyrazol-3-yl]phenyl]methyl]propane-1,3-diamine]: the p62/LC3 in data set [1] was 0.34. Moreover, the IC50 in data set [2] (Homo sapiens) was 1700 ± 100 nM; in data set [3] (setting [8]) it was ~1000 nM; in data set [3] (setting [7]), 1200 ± 100 nM. The EC (20-fold increase) in data set [4] (Homo sapiens) is 1 µM; in data set [5] (Homo sapiens) it was 0.7 µM. The “C20 for CTFα and AICD” value in data set [5] is given as “around 1 µM”. This compound returned a CC50 at 72 h in data set [6] of 25000 nM.
Regarding “N′-[[4-[4-[3-(Dimethylamino)propyl]-3-[4-[3-(dimethylamino)propyl]phenyl] Pyrazol-1-yl]phenyl]methyl]-N,N,N′-trimethyl-propane-1,3-diamine [Compound 33]”, in data set [1], the p62/LC3 amounted to 0.98. Also, the IC50 in data set [2] came to 9700 ± 1200 nM; in data set [3] (SY5Y-APP^WT cells, 24 h treatment, mean ± SD of at least three experiments in triplicate, read-out: Aβ1–40 IC50), 9200 ± 400 nM. For the same compound, the values for the EC (20-fold increase) in data set [4] and in data set [5] were 8.9 µM and 6.1 µM, respectively.
